# According to ChEMBL document CHEMBL1154640, “Application of desirability-based multi(bi)-objective optimization in the design of selective arylpiperazine derivates for the 5-HT1A serotonin receptor” (Eur J Med Chem, 2009):
# Legend:
# [1] = target: T1, 5-hydroxytryptamine receptor 1A (Homo sapiens, UniProt P08908); assay: Displacement of [3H]8-OH-DPAT from human recombinant 5-HT1A receptor expressed in HEK293 cells after 120 mins; format: cell-based
# T1 sequence (P08908 whole entry): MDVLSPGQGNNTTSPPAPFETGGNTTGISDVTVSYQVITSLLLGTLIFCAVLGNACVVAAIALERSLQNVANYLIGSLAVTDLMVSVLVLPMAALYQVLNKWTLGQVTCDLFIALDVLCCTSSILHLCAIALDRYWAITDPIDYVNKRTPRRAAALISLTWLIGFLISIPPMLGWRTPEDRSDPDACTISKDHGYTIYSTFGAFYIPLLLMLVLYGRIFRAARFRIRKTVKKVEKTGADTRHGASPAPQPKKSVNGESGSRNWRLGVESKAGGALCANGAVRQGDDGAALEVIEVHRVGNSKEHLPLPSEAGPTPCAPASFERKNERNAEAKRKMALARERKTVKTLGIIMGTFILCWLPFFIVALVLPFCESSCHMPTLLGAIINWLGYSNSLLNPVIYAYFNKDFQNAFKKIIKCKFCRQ
# [2] = target: 5-hydroxytryptamine receptor 2A (Rattus norvegicus, UniProt P14842); assay: Displacement of [3H]ketanserin from 5-HT2A receptor in Wistar Hannover rat brain cortex membrane
# 5-hydroxytryptamine receptor 2A, sequence (P14842 whole entry): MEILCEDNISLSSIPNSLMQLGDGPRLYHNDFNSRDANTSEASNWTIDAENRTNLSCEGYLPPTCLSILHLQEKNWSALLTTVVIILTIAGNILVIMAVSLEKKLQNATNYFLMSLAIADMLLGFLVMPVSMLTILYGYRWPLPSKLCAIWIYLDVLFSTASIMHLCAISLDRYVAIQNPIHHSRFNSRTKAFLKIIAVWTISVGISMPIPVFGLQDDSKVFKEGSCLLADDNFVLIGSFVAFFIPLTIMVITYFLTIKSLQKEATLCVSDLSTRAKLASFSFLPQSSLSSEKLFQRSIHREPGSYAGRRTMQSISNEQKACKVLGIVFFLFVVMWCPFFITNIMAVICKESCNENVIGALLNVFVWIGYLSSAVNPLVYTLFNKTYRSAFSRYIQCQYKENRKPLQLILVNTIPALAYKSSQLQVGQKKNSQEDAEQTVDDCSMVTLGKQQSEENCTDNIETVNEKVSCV
SMILES,Ki [1] [nM],Ki [2] [nM]
O=c1c2ccccc2c(=O)n(-c2ccccc2)n1CCCCN1CCN(c2cccc(Cl)c2)CC1,398,575
COc1ccccc1N1CCN(CCCn2c(=O)c3ccccc3c(=O)n2-c2ccccc2)CC1,30.2,302
COc1ccccc1N1CCN(CCCn2c(=O)ccc(=O)n2-c2ccccc2)CC1,53.7,2140
COc1ccccc1N1CCN(CCCCn2c(=O)c3ccccc3c(=O)n2-c2ccccc2)CC1,42.7,372
O=c1c2ccccc2ncn1CCCN1CCN(c2cccc(Cl)c2)CC1,234,15.8
COc1ccccc1N1CCN(CCCCn2cnc3ccccc3c2=O)CC1,36.3,562
O=c1c2ccccc2c(=O)n(-c2ccccc2)n1CCCN1CCN(c2cccc(Cl)c2)CC1,417,661
O=c1c2ccccc2ncn1CCCCN1CCN(c2cccc(Cl)c2)CC1,50.1,67.6
O=c1ccc(=O)n(-c2ccccc2)n1CCCN1CCN(c2cccc(Cl)c2)CC1,204,269
COc1ccccc1N1CCN(CCCn2cnc3ccccc3c2=O)CC1,100,457
O=c1ccc(=O)n(-c2ccccc2)n1CCCCN1CCN(c2cccc(Cl)c2)CC1,50.1,1820
COc1ccccc1N1CCN(CCCCn2c(=O)ccc(=O)n2-c2ccccc2)CC1,11,1450
